Results published in patent publication US20070192880A1, “Horming response element binding transregulators” (UNIVERSITY OF ROCHESTER, priority 2003, published 2007).
“Also recorded” adds a separate entry of the source.

Legend:
MCF-7 cells = experiment: cell cycle analysis (FACS, EGFP-positive cells), transfected MCF-7 cells; format: cell-based, human
Experimental: (§1) Transfection and processing of cells were done as described in legend of FIG. 5.
MDA-MB-231 and MCF-7 cells were grown as described above. Cells were then transiently transfected with the EGFP vector bearing a cDNA for ERα, CDC or an EBA. Twenty-four hours after transfection, cells were collected by trypsinization, washed in phosphate buffered saline (PBS) and fixed with 1% paraformaldehyde in PBS for one hour. Cells were permeabilized in 70% Ethanol overnight and stained with 50 μg/ml propidium iodide (PI, Sigma-Aldrich) for one hour for flow cytometry analysis. Samples were analyzed on a FACS EPICS Elite EPS flow cytometer (Coulter Corp., Hialeah, Fla.). The percentages of cells at G1 phase were assessed among treatment groups and expressed as percent change compared to cells transfected with EGFP vector bearing no cDNA.

human C3 gene promoter = experiment: C3 promoter luciferase reporter, COS-1 cells; format: cell-based, African green monkey
Description: Transfection and processing of cells were done as described in legend of FIG. 7. Shown are the mean±SEM of three independent experiments performed in duplicate and expressed as fold changes compare to the parent expression vector (V), which was set to one.
(§2) The CatD and C3 promoters were generated by PCR using pCD3542 (Augereau P. et al. Mol Endocr 8:693-703) and pC3TI (Fan JD. (1996) Mol Endocrinol 10: 1605-16) reporter plasmids as templates, respectively. A fragment of 730 bp [−750 to −22, +1 is referred to the first ATG, (Parker, M. G. (1998) Biochem Soc Symp 63, 45-50)] of the promoter region of CatD gene or 580 bp [−516 to +61, +1 as the transcription start site) of the C3 gene (Tzukerman, M. T. et al. (1994) Mol Endocrinol 8, 21-30)] was generated. PCR fragments were then inserted into the reporter plasmid pGL3-Basic linearized with appropriate restriction enzymes.
(§3) COS-1 cells were transfected with a reporter construct bearing CatD or C3 promoter together with the expression vector bearing none (V, as control), cDNA for ERα or an EBR. Following a transfection, cells were treated without or with 10^−9 M E2 or 10^−7 M 4-OHT for 24 h.

[1] = system: human Catepsin D (CatD) gene promoter; experiment: CatD promoter luciferase reporter, COS-1 cells; format: cell-based, African green monkey; conditions: without or with 10^−9 M E2 or 10^−7 M 4-OHT, 24 h
Description: Transfection and processing of cells were done as described in legend of FIG. 7. The reporter vector contains the human Catepsin D (CatD) gene promoter that drives the firefly luciferase cDNA expression. The mean±SEM indicates three independent experiments performed in duplicate.
as §2, §3

RARα promoter = RARα promoter luciferase reporter, MCF-7 cells; format: cell-based, human; conditions: without or with 10^−9 M E2
Experimental: as §1
(§4) Culturing and transfection of the mammalian COS-1 and […] MDA-MB-231 cells were described previously (Muyan, M. et al. (2001) Mol Cell Endocrinol 182,249-263; Yi, P. et al. (2002) Mol Endocrinol 16, 1810-1827), with the exceptions that 48 well cell culture plates were used and Trans-IT LTI transfection reagent (Mirus Corp., Madison, Wis.). Luciferase assays were performed with a Dual Luciferase Assay kit (Promega) according to the manufacture's recornmendations. Steroid hormones and 9-cis retinoic acid were purchased from Sigma-Aldrich (St. Louis, Mo.). For transfection of MDA-MB-231 and MCF-7 cells, the cells were incubated for three days in a phenol red-free DMEM supplemented with 10% charcoal-dextran treated fetal bovine serum (CD-FBS). Cells were transfected with appropriate expression vectors using Lipofectamine 2000 transfection reagent (Invitrogen).

[2] = system: pS2, C3 and Oxytocin promoter constructs; experiment: pS2, C3 and Oxytocin promoter luciferase reporters, MCF-7 cells; format: cell-based, human; conditions: absence or presence of 10^−9 M E2, FIG. 6A
Experimental: as §1, §4

[3] = system: ERE-driven TATA box promoter; experiment: luciferase reporter, consensus ERE upstream of TATA box promoter, COS-1 cells; format: cell-based, African green monkey
Description: Proteins were probed with a Flag antibody followed by a fluorescein-conjugated secondary antibody for visualization (FITC). DAPI staining indicates the nucleus. […] (*) denotes mutants with an impaired DNA binding finction, while VP16* depicts the activation function defective construct. The reporter plasmid contained either one (1× ERE) or two copies (2× ERE) of the consensus ERE in tandem located upstream of a simple promoter, TATA box, driving the expression of the firefly luciferase cDNA. The transfection efficiency was monitored by the co-expression of 0.5 ng of a reporter plasmid, pCMV-RL that drives the expression of Renilla luciferase cDNA. Cells were treated with or without 10^−9 M E2 for 24 h. The cell extracts were assayed for luciferase enzymes, and the normalized firefly/Renilla luciferase activities are presented as fold changes compare to the control, which was set to one. Shown are the mean±SEM of three independent experiments performed in duplicate.
Culturing and transfection of the mammalian COS-1 and […] MDA-MB-231 cells were described previously (Muyan, M. et al. (2001) Mol Cell Endocrinol 182,249-263; Yi, P. et al. (2002) Mol Endocrinol 16, 1810-1827), with the exceptions that 48 well cell culture plates were used and Trans-IT LTI transfection reagent (Mirus Corp., Madison, Wis.). […]

4-hydroxytamoxifen [Construct 4-OHT]
cells accumulated in the G1 phase (MCF-7 cells; medium with untreated FBS, 4-OHT 10^−7 M): increased the cell population in the G1 phase | effect on C3 promoter reporter enzyme activity (human C3 gene promoter): effectively decreased the transcription induction | effect on CatD promoter reporter enzyme activity [1]: did not alter the transcription of the reporter enzyme mediated by ERα; also recorded: prevented the E2-ERα complex-mediated augmentation

C[C@]12CC[C@@H]3c4ccc(O)cc4CC[C@H]3[C@@H]1CC[C@@H]2O [Construct E2, estradiol 17β]
G1/S phase transition / cell cycle progression (MCF-7 cells; charcoal-dextran treated FBS, E2 10^−9 M): enhanced the G1/S phase transition | transcriptional response from the RARα promoter (RARα promoter): enhanced the reporter activity | reporter enzyme activity from pS2, C3 and Oxytocin promoter constructs [2]: enhanced reporter enzyme activity

VP16: activation domain of the herpes simplex virion protein VP16 alone, residues 403-490
effect on transcription from ERE-TATA reporter [3]: did not alter the transcription
